Values quoted from earlier work in patent publication US20070224216A1, “Methods and Compositions Related to Antiviral Therapy Using Algae and Cyanobacteria” (priority 2004, published 2007).

Tests used:
[1] = test system: uninfected cells

| Substance | toxicity to uninfected cells [1] | plasma concentrations after oral administration (rat, in vivo, po) | thrombosis in the rat jugular vein model (rats, oral) |
| --- | --- | --- | --- |
| calcium spirulan | No toxicity | – | – |
| heparin [oral heparins] | – | less than 1% | reduction of thrombosis |
